Test results reported in patent US20260373101A1, “POLYAMINATED FATTY ACIDS FOR USE AS POTENTIATORS OF ANTIBACTERIAL ACTIVITY” (priority 2023, published 2026).
pIC50: −log10 of the molar value. ≈ marks a conversion by molar mass, not a printed value.

The compounds below were run on P. aeruginosa ATCC27853 (assay: Intrinsic antibacterial activity, standard microdilution (CLSI)). Conditions: Pseudomonas aeruginosa; P. aeruginosa ATCC27853, compound alone, 24 h, 37 °C.
Assay type: cell-based
Description: (§1) The bacterial strains used in the examples below are the reference strains P. aeruginosa ATCC27853, E. coli ATCC25922, K. pneumoniae ATCC51296, S. aureus ATCC25923 and E. faecalis ATCC29212. The bacterial strains were previously stored in 15% (v/v) glycerol at −80 °C for cryoprotection. One colony of the fresh culture of each strain was incubated in a culture tube containing 3 ml of Mueller-Hinton broth (MH2) at 37 °C overnight with agitation. This suspension was used for inoculum preparation.
(§2) The antibacterial activity of said polyaminated fatty acid compounds was measured using a standard microdilution test based on Clinical and Laboratory Standards Institute (CLSI) guidelines. This method was slightly modified by increasing the assay volumes to 200 μl so as to improve reproducibility.
(§3) A negative control which corresponds to 2 ml of sterile culture medium and a positive control which corresponds to a mixture of 1980 μl of culture medium and 20 μl of bacterial suspension from a thawed biological strain (biological strains are stored at −80 °C in glycerol) were prepared.
(§4) The tubes were incubated in an incubator shaker “Infors” at 37 °C for 24 hours at 100 round per minute (rpm).
(§5) The polyaminated fatty acid compounds to be tested were prepared in water at a concentration of 10 mM.
(§6) The required volume of the microbial suspension to be inoculated was calculated for an optical density (OD) measured corresponding to a value equal to 0.01 in each well by using a spectrophotometer at 600 nm. In the microplate, the first row corresponded to the negative control (200 μl of sterile culture medium in each well), the second row to the positive control (seeded culture medium), the third row was loaded twice with bacterial suspension and with 8 μl of a given polyaminated fatty acid compound in each well. Subsequently, a half-fold cascade dilution was performed from this line. The first column was used as an inhibition control. A sterile filter was then placed on the microplate allowing the passage of gases but not contaminants. The microplate was incubated at 37 °C in a humid atmosphere for 24 hours. After 24 hours of incubation, an optical density measurement was performed by taking 100 μl of the bacterial suspension diluted in 900 μl of sterile culture medium.
(§7) The medium used was Mueller-Hinton medium (MH) for bacteria. All tests were performed in duplicate.
(§8) Table 1 below reports the intrinsic antibacterial activity of some polymaminated fatty acids prepared in example 1 (MIC in μM) as well as their toxicity towards eucaryotic cells (IC50 in μM).

Compound	MIC
CCCCCCCCCCCCCCCC(=O)NCCCNCCCN [PAFA3]	> 200 µM

The compounds below were run on S. aureus ATCC25923 in the same assay as above. Conditions: Staphylococcus aureus; S. aureus ATCC25923, compound alone, 24 h, 37 °C.
Assay type: cell-based
Description: as §1, §2, §3, §4, §5, §6, §7, §8

Compound	MIC
CCCCCCCCCCCCCCCC(=O)NCCCNCCCN [PAFA3]	> 200 µM

These compounds were tested on E. coli ATCC28922 in the same assay as above. Conditions: Escherichia coli, ATCC28922, 24 h.
Assay type: cell-based

Compound	MIC
CCCCCCCCCCCCCCCC(=O)NCCCNCCCN [PAFA3]	200 µM (≈ 73.9 µg/mL)

What follows are compounds tested on Chinese hamster ovary cells (CHO-K1) (assay: Toxicity on mammalian cells, WST1 assay). Conditions: Cricetulus griseus; CHO-K1 cell viability, WST1, 24 h.
Assay type: cell-based
Description: The WST1 assay was used to measure the cytotoxic activity of the polyaminated fatty acid compounds. It is a colorimetric assay that measures viability and cell proliferation rate. It is based on the cleavage of colorless tetrazolium salts WST-1 (4-[3-(4-iodophenyl)-2-(4-nitrophenyl)-2H-5-tetrazolio]-1,3-benzene disulfonate) by mitochondrial dehydrogenases into yellow formazan derivative, quantifiable by spectrophotometry at 420-480 nm.
The WST1 assay was performed on Chinese hamster ovary cells. CHO-K1 cells (ATCC, USA) were maintained in culture in “Mac Coy's 5A” medium supplemented with 10% fetal calf serum, 2 mM L-glutamine and streptomycin penicillin mixture (100 U/ml: 10 μg/ml). Incubation is carried out at 37 °C under CO2 enriched atmosphere (5% by volume) and subcultured every two days.
Cells are transferred to 96-well plates (25,000 cells/ml) in complete “Mac Coy's 5A medium”, and maintained for 24 h at 37 °C under a humid CO2-enriched atmosphere (5% by volume). Increasing concentrations of given polyaminated fatty acid compounds are added to the wells in duplicate assays and 8 growth controls containing cells in medium alone are included in each assay run. After 24 hours at 37 °C (5% CO2), the culture medium is removed, the cells are rinsed in phosphate buffer (PBS) and 50 μL of PBS containing 10% WST1 reagent is added to each well. After 20 minutes of incubation at 37 °C, the results are read by spectrophotometry at 450 nm.
The results are expressed as dose-response relationships, modeled by a non-linear regression analysis using TableCurve software. The 50% Inhibitory Concentration (IC50) represents the concentration of polyaminated fatty acid compound capable of reducing cell viability by 50%.

Compound	pIC50
CCCCCCCCCCCCCCCC(=O)NCCCNCCCN [PAFA3]	4.25

Each compound was assayed on E. coli AG-100A (assay: Potentiation of known antibiotics (MIC of antibiotic alone or with PAFA)). Conditions: Escherichia coli, AG100A, 24 h, Antibiotic alone.
Assay type: cell-based
Description: (§9) 100 μl of a liquid culture medium is deposited in each well of a 96-well microplate, and then inoculated with the bacterial suspension of example 2.1 prepared for the positive control. The volume needed to inoculate is calculated for an OD of 0.01 which corresponds to approximately 5,106 bacteria in each well. In this plate, the first row corresponds to a negative control (200 μl of sterile culture medium in each well), the second row to a positive control (100 μl of sterile culture medium with 100 μl of the bacterial suspension), the third row contains 192 μl of culture medium and 8 μl of an antibiotic solution (10 mg/ml) to be tested in each well. Subsequently, a cascade dilution is performed from this line. Next, 10 μl of a fatty acid solution (10 μM final concentration) is added to each well of the lines. Then, 90 μl of bacterial suspension is added to lines 3 to 8. The MIC of the antibiotic tested is determined after 24 hours of incubation at 37 °C in a humid atmosphere.
(§10) The table 3 below reports the antibacterial activity (MIC in μg/mL) of a combination of some polyaminated fatty acids prepared in example 1 with various antibacterial drugs: doxycycline (DOX), tetracycline (TET), oxytetracycline (OXY) and minocycline (MINO), against various bacterial strains of P. aeruginosa (PA01, PA0509, and PA263), and of E. coli (AG-100 and AG-100A).

Compound	MIC
CN(C)[C@@H]1C(O)=C(C(N)=O)C(=O)[C@@]2(O)C(O)=C3C(=O)c4c(O)cccc4[C@@](C)(O)[C@H]3C[C@@H]12 [TET, tetracycline]	1 µg/mL

Same assay, conditions: Escherichia coli, AG100A, 24 h, MIC of antibiotic, +PAFA10 (10 μM)

Compound	MIC
CN(C)[C@@H]1C(O)=C(C(N)=O)C(=O)[C@@]2(O)C(O)=C3C(=O)c4c(O)cccc4[C@@](C)(O)[C@H]3C[C@@H]12 [TET, tetracycline]	0.5 µg/mL

Same assay, conditions: Escherichia coli, AG100A, 24 h, MIC of antibiotic, +PAFA11 (10 μM)

Compound	MIC
CN(C)[C@@H]1C(O)=C(C(N)=O)C(=O)[C@@]2(O)C(O)=C3C(=O)c4c(O)cccc4[C@@](C)(O)[C@H]3C[C@@H]12 [TET, tetracycline]	0.5 µg/mL

Same assay, conditions: Escherichia coli, AG100A, 24 h, MIC of antibiotic, +PAFA14 (10 μM)

Compound	MIC
CN(C)[C@@H]1C(O)=C(C(N)=O)C(=O)[C@@]2(O)C(O)=C3C(=O)c4c(O)cccc4[C@@](C)(O)[C@H]3C[C@@H]12 [TET, tetracycline]	0.008 µg/mL

These compounds were tested on E. coli AG-100 in the same assay as above. Conditions: Escherichia coli, AG100, 24 h, AG-100, Antibiotic alone.
Assay type: cell-based
Description: as §9, §10

Compound	MIC
CN(C)[C@@H]1C(O)=C(C(N)=O)C(=O)[C@@]2(O)C(O)=C3C(=O)c4c(O)cccc4[C@@](C)(O)[C@H]3C[C@@H]12 [TET, tetracycline]	1 µg/mL

Same assay, conditions: Escherichia coli, AG100, 24 h, MIC of antibiotic, AG-100, +PAFA10 (10 μM)

Compound	MIC
CN(C)[C@@H]1C(O)=C(C(N)=O)C(=O)[C@@]2(O)C(O)=C3C(=O)c4c(O)cccc4[C@@](C)(O)[C@H]3C[C@@H]12 [TET, tetracycline]	0.5 µg/mL

Same assay, conditions: Escherichia coli, AG100, 24 h, MIC of antibiotic, AG-100, +PAFA11 (10 μM)

Compound	MIC
CN(C)[C@@H]1C(O)=C(C(N)=O)C(=O)[C@@]2(O)C(O)=C3C(=O)c4c(O)cccc4[C@@](C)(O)[C@H]3C[C@@H]12 [TET, tetracycline]	0.25 µg/mL

Same assay, conditions: Escherichia coli, AG100, 24 h, MIC of antibiotic, AG-100, +PAFA14 (10 μM)

Compound	MIC
CN(C)[C@@H]1C(O)=C(C(N)=O)C(=O)[C@@]2(O)C(O)=C3C(=O)c4c(O)cccc4[C@@](C)(O)[C@H]3C[C@@H]12 [TET, tetracycline]	0.008 µg/mL

The compounds below were run on P. aeruginosa PA01 in the same assay as above. Conditions: Pseudomonas aeruginosa, PA01, 24 h, MIC of antibiotic, PA01, +PAFA10 (10 μM).
Assay type: cell-based
Description: as §9, §10

Compound	MIC
CN(C)[C@@H]1C(O)=C(C(N)=O)C(=O)[C@@]2(O)C(O)=C3C(=O)c4c(O)cccc4[C@@](C)(O)[C@H]3C[C@@H]12 [TET, tetracycline]	8 µg/mL

Same assay, conditions: Pseudomonas aeruginosa, PA01, 24 h, MIC of antibiotic, PA01, +PAFA11 (10 μM)

Compound	MIC
CN(C)[C@@H]1C(O)=C(C(N)=O)C(=O)[C@@]2(O)C(O)=C3C(=O)c4c(O)cccc4[C@@](C)(O)[C@H]3C[C@@H]12 [TET, tetracycline]	8 µg/mL

Same assay, conditions: Pseudomonas aeruginosa, PA01, 24 h, MIC of antibiotic, PA01, +PAFA14 (10 μM)

Compound	MIC
CN(C)[C@@H]1C(O)=C(C(N)=O)C(=O)[C@@]2(O)C(O)=C3C(=O)c4c(O)cccc4[C@@](C)(O)[C@H]3C[C@@H]12 [TET, tetracycline]	2 µg/mL

Same assay, conditions: Pseudomonas aeruginosa, PA01, 24 h, PA01, Antibiotic alone

Compound	MIC
CN(C)[C@@H]1C(O)=C(C(N)=O)C(=O)[C@@]2(O)C(O)=C3C(=O)c4c(O)cccc4[C@@](C)(O)[C@H]3C[C@@H]12 [TET, tetracycline]	32 µg/mL

Each compound was assayed on P. aeruginosa PA0509 in the same assay as above. Conditions: Pseudomonas aeruginosa, PA0509, 24 h.
Assay type: cell-based
Description: as §9, §10

Compound	MIC
CN(C)[C@@H]1C(O)=C(C(N)=O)C(=O)[C@@]2(O)C(O)=C3C(=O)c4c(O)cccc4[C@@](C)(O)[C@H]3C[C@@H]12 [TET, tetracycline]	1 µg/mL

Same assay, conditions: Pseudomonas aeruginosa, PA0509, 24 h, MIC of antibiotic, PA0509, +PAFA10 (10 μM), 24 h

Compound	MIC
CN(C)[C@@H]1C(O)=C(C(N)=O)C(=O)[C@@]2(O)C(O)=C3C(=O)c4c(O)cccc4[C@@](C)(O)[C@H]3C[C@@H]12 [TET, tetracycline]	0.5 µg/mL

Same assay, conditions: Pseudomonas aeruginosa, PA0509, 24 h, MIC of antibiotic, PA0509, +PAFA11 (10 μM), 24 h

Compound	MIC
CN(C)[C@@H]1C(O)=C(C(N)=O)C(=O)[C@@]2(O)C(O)=C3C(=O)c4c(O)cccc4[C@@](C)(O)[C@H]3C[C@@H]12 [TET, tetracycline]	0.25 µg/mL

Same assay, conditions: Pseudomonas aeruginosa, PA0509, 24 h, MIC of antibiotic, PA0509, +PAFA14 (10 μM), 24 h

Compound	MIC
CN(C)[C@@H]1C(O)=C(C(N)=O)C(=O)[C@@]2(O)C(O)=C3C(=O)c4c(O)cccc4[C@@](C)(O)[C@H]3C[C@@H]12 [TET, tetracycline]	0.125 µg/mL

What follows are compounds tested on P. aeruginosa PA263 in the same assay as above. Conditions: PA263, +PAFA11 (10 μM).
Assay type: cell-based
Description: as §9, §10

Compound	fold reduction in MIC (MIC alone / MIC with PAFA)
CN(C)[C@@H]1C(O)=C(C(N)=O)C(=O)[C@@]2(O)C(O)=C3C(=O)c4c(O)cccc4[C@@](C)(O)[C@H]3C[C@@H]12 [TET, tetracycline]	2

Same assay, conditions: Pseudomonas aeruginosa, PA263, 24 h, MIC of antibiotic, PA263, +PAFA10 (10 μM), 24 h

Compound	MIC
CN(C)[C@@H]1C(O)=C(C(N)=O)C(=O)[C@@]2(O)C(O)=C3C(=O)c4c(O)cccc4[C@@](C)(O)[C@H]3C[C@@H]12 [TET, tetracycline]	8 µg/mL

Same assay, conditions: Pseudomonas aeruginosa, PA263, 24 h, MIC of antibiotic, PA263, +PAFA11 (10 μM), 24 h

Compound	MIC
CN(C)[C@@H]1C(O)=C(C(N)=O)C(=O)[C@@]2(O)C(O)=C3C(=O)c4c(O)cccc4[C@@](C)(O)[C@H]3C[C@@H]12 [TET, tetracycline]	16 µg/mL

Same assay, conditions: Pseudomonas aeruginosa, PA263, 24 h, MIC of antibiotic, PA263, +PAFA14 (10 μM), 24 h

Compound	MIC
CN(C)[C@@H]1C(O)=C(C(N)=O)C(=O)[C@@]2(O)C(O)=C3C(=O)c4c(O)cccc4[C@@](C)(O)[C@H]3C[C@@H]12 [TET, tetracycline]	4 µg/mL

Same assay, conditions: Pseudomonas aeruginosa, PA263, 24 h, PA263, Antibiotic alone, 24 h

Compound	MIC
CN(C)[C@@H]1C(O)=C(C(N)=O)C(=O)[C@@]2(O)C(O)=C3C(=O)c4c(O)cccc4[C@@](C)(O)[C@H]3C[C@@H]12 [TET, tetracycline]	32 µg/mL
